Where “and” joins values, the source holds several entries; their conditions need not be identical. Equal values may be shown once.
What was measured:
P-gp [1] = molecular target: T1, P-gp (Homo sapiens, UniProt P08183); test: ATPase assay with P-gp-expressing membrane vesicles (SB-MDR1 […] ATPase Kit); type: biochemical
Method: The SB-MDR1 […] ATPase Kit, including P-gp-expressing membrane vesicles, was purchased from SOLVO Biotechnology (distributed by KAC Co., Ltd., Kyoto, Japan). This assay kit measures the interaction of test drugs with P-gp. ATPase assay was conducted according to the manufacturer’s instructions and a previous report. Inorganic phosphate liberated by ATP hydrolysis was detected by colorimetric reaction. The optical density (OD) was measured at 590 nm with a microplate reader, Sunrise™ Rainbow (TECAN, Kanagawa, Japan).

[2] = in combination with sertraline; cited from earlier work
[3] = Bidirectional assay across Caco-2 cell monolayers; conditions: human
Source text: Caco-2 cells (RRID:CVCL_0025), a human colon epithelial cancer cell line frequently used as an in vitro intestinal model, were purchased from the American Type Culture Collection (Rockville, MD, USA). […] The receiver side contained transport medium.

P-gp [4] = molecular target: T1, P-gp; test: Efflux rate assay using P-gp-overexpressing LLC-GA5-CoL150 cells; type: in vitro ADME; set-up: host or cells: LLC-GA5-CoL150 (derivative of LLC-PK1 kidney epithelial cells)
Method: Efflux assay with LLC-GA5-CoL150 cells was performed as previously described, with some modifications. […] The cells were incubated for 30 min at 4°C, washed twice with ice-cold D-PBS(-), and further incubated in Opti-MEM® for 10 min at 37°C. The cells were then washed three times with ice-cold D-PBS(-), dried, and lysed by adding 200 μL of 0.1 N NaOH solution. […] The efflux rate was calculated according to the following formula.
Effluxrate(pmol/min/mgprotein)={Initialuptakeofpimozide(pmol/mgprotein)−Residualamountofpimozideafter10minincubation(pmol/mgprotein)}/10(min)
Protein was determined colorimetrically using DCTM Protein Assay (BIO-RAD, Hercules, CA), based on absorbance measurement at 700 nm with a microplate reader, Sunrise Rainbow RC (Tecan, Kanagawa, Japan). An aliquot of cell lysate was mixed with 300 μL of ethyl acetate for 10 min in the cold, then 100 μL of the organic phase was taken and evaporated. The residue was dissolved in 300 μL of mobile phase. All samples were applied to MultiScreen® Solvent Filter Plates 0.45 μm Low-Binding Hydrophilic PTFE (Merck, Ireland) and centrifuged at 3,500 rpm for 20 min at 4°C.
To estimate the kinetic parameters of carrier-mediated transport in the efflux assays, the transport rate (J) was fitted to the following Eq (1), containing saturable and nonsaturable-linear terms, by using the nonlinear least-squares regression analysis program, MULTI, as previously reported. J=Jmax×[S]/(Kt+[S])+kd×[S] (1) Where Jmax is the maximum transport rate for the carrier-mediated transport, [S] is the substrate concentration, Kt is the half-saturation concentration, and kd is the first-order rate constant.

[5] = pimozide 0.01 to 100 μM, mean ± S.D.

T1 sequence (P08183 whole entry): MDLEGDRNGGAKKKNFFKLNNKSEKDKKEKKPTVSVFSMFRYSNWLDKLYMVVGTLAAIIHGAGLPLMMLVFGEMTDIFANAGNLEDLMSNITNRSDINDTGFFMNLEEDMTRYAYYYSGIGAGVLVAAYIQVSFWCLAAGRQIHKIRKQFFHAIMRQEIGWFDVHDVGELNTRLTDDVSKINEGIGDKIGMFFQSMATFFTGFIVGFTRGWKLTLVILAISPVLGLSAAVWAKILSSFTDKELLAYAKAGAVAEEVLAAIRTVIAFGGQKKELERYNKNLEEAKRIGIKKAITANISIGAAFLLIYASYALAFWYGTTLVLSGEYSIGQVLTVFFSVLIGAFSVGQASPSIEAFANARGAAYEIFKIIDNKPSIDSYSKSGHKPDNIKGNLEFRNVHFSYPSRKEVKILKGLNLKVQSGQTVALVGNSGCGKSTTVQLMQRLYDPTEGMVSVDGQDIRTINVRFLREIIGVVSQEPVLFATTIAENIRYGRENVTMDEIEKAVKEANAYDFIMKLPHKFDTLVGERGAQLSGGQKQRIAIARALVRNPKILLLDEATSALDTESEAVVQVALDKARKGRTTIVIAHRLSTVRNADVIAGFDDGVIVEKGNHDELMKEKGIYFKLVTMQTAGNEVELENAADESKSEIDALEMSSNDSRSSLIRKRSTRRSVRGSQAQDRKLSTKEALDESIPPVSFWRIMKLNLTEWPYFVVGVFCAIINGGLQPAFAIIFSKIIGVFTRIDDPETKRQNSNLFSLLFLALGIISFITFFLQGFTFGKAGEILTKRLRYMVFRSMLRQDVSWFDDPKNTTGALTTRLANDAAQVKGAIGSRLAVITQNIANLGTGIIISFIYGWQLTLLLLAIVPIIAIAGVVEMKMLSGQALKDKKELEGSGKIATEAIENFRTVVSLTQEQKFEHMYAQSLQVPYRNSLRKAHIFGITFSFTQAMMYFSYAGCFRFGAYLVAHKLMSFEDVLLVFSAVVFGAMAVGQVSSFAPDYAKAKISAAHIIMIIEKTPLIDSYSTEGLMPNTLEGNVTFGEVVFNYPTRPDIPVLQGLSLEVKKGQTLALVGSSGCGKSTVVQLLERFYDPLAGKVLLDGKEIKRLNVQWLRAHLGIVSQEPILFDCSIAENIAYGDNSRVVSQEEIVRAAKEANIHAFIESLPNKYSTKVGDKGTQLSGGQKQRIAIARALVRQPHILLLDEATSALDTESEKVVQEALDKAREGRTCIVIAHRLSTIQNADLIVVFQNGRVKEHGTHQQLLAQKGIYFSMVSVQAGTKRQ

P-gp substrate/inhibitor classification from ATPase assay (P-gp [1]; ATPase activity increased concentration-dependently, reduced in the high concentration range): both a P-gp substrate and an inhibitor | pimozide concentration over which ATPase activity decreased (P-gp [1]; concentration range 0.04 to 100 μM, concentration-dependent elevation at lower concentrations): about 10 μM | Papp A→B at 120 min, 10 μM [3]: 1.64 ± 0.14 ×10⁻⁶ cm/s | Papp B→A at 120 min, 10 μM [3]: 0.35 ± 0.01 ×10⁻⁶ cm/s | Jmax/Kt (affinity for the transport carrier(s)) (P-gp [4]): 8.0 μL/min/mg protein | Jmax (maximum transport rate for the carrier-mediated transport) (P-gp [4]; [5]): 84.9 ± 8.9 pmol/min/mg protein | Kt (half-saturation concentration) (P-gp [4]; [5]): 10.6 ± 4.7 µM and 10.6 µM
Structure (SMILES): O=c1[nH]c2ccccc2n1C1CCN(CCCC(c2ccc(F)cc2)c2ccc(F)cc2)CC1 [Pimozide]
change of blood half-life of pimozide [2]: without any significant change | increase of AUC of pimozide [2]: 37% | increase of Cmax of pimozide [2]: 35%
